Results published in patent US7262218B2, “Forms of pravastatin sodium” (Teva Gyogyszergyar Zartkoruen Mukodo Reszvenytarsasag, priority 1999, dated 2007).
One block for each compound: values may come before it.

Tests used:
[1] = Solid-form stability on exposure at 100% relative humidity (X-ray diffraction); type: physicochemical; settings: one week
Source text: The water uptake at 80% relative humidity after 1 week was up to about 15%. After exposure at 100% relative humidity, all the forms of pravastatin sodium transform to Form C with about […].
Pravastatin sodium was exposed at 100% relative humidity for one week.

serum cholesterol levels = settings: human subjects with normal hepatic function and moderate body weight; daily dosages of 10 mg or more; cited from earlier work
[2] = Solid-form stability on storage at 40-80% relative humidity for two weeks (X-ray diffraction); type: physicochemical; settings: two weeks at relative humidity of between 40-80%
Protocol: Pravastatin sodium Form G may be prepared by storing pravastatin sodium Form F for 2 weeks at a relative humidity of about 40 to about 80%. […] The resulting solid was analyzed by X-ray diffraction without further treatment.

[3] = Solid-form stability on drying under vacuum (X-ray diffraction); type: physicochemical
Protocol: Most of these forms have a jelly appearance. By drying these samples at 60° C., vacuum overnight, the powdered Form D is obtained.
Pravastatin sodium (7 g) was dissolved in deionized water (13 ml) and diluted with acetone (14.3 ml). The resulting solution was stirred over charcoal (0.07 g.) to decolorize. The charcoal was removed by filtration and rinsed with a 10:1 mixture of acetone:water (15.7 ml). The combined pravastatin sodium solution and rinsate was then diluted with acetone (42.8 ml) and cooled to −10° C. At the reduced temperature, more acetone (143 ml) was slowly added over one half hour. The solution was then maintained at −10° C. for three hours during which time pravastatin sodium crystallized. The crystals were then isolated by filtration, washed with 1% water in acetone that had been pre-cooled to −10° C. (28 ml) and then again with anhydrous acetone (28 ml). The crystals were then dried under vacuum at 50° C. […]
Pravastatin crystals were filtered and washed with 160 L acetone containing 2% water and cooled to between 2-5° C. Then the wet cake was washed once more with 160 L of pure acetone. The product was dried under vacuum by gradual heating to 60° C. The crystals were identified by X-ray diffraction as Form L. The water content was 16.8% and the acetone content was 0%. After prolonged drying the water content was reduced to 10.7%. A mixture of Form L and D was identified.

crystal form after drying under vacuum overnight [3]: transformed to Form D
Compound: CC[C@H](C)C(=O)O[C@H]1C[C@H](O)C=C2C=C[C@H](C)[C@H](CC[C@@H](O)C[C@@H](O)CC(=O)O)[C@H]21 [Form J, pravastatin sodium]

crystal form after drying under vacuum at 50° C. ([3]; dried under vacuum at 50° C. (Example 6)): after drying the crystals were Form D
crystal form after further drying under vacuum ([3]; vacuum, gradual heating to 60° C., further drying to 2.5% water content (Example 23)): transformed to pure Form D
Compound: CC[C@H](C)C(=O)O[C@H]1C[C@H](O)C=C2C=C[C@H](C)C(CC[C@@H](O)C[C@@H](O)CC(=O)O)[C@H]21 (some centres unmarked) [Form L, pravastatin sodium]

The remaining lines, values behind:

Compound: CC[C@H](C)C(=O)O[C@H]1C[C@H](O)C=C2C=C[C@H](C)C(CC[C@@H](O)C[C@@H](O)CC(=O)O)[C@H]21 (relative stereo) [Pravastatin sodium, [1S-[1α(β*,δ*)2α,6α,8β(R*),8aα]]-1,2,6,7,8,8a-hexahydro-β,δ,6-trihydroxy-2-methyl-8-(2-methyl-1-oxobutoxy)-1-naphthalene-heptanoic acid]
crystal form after exposure at 100% relative humidity [1]: found to be Form C
effect on serum cholesterol levels (serum cholesterol levels): reduction in serum cholesterol levels

Compound: CC[C@H](C)C(=O)O[C@H]1C[C@H](O)C=C2C=C[C@H](C)[C@H](CC[C@@H](O)C[C@@H](O)CC(=O)O)[C@H]21 [Form F, pravastatin sodium]
crystal form after storage at humidity [2]: Form G is obtained

Compound: CC[C@H](C)C(=O)O[C@H]1C[C@H](O)C=C2C=C[C@H](C)[C@H](CC[C@@H](O)C[C@@H](O)CC(=O)O)[C@H]21 [Form H, pravastatin sodium]
crystal form after drying under vacuum overnight [3]: converted to Form D

Compound: CC[C@H](C)C(=O)O[C@H]1C[C@H](O)C=C2C=C[C@H](C)[C@H](CC[C@@H](O)C[C@@H](O)CC(=O)O)[C@H]21 [Form I, pravastatin sodium]
crystal form after drying under vacuum overnight [3]: transformed to Form D
